# Laboratory results: ChEMBL document CHEMBL1143417, “Roles of P-glycoprotein, Bcrp, and Mrp2 in biliary excretion of spiramycin in mice” (Antimicrob Agents Chemother, 2007)
# Legend:
# [1] = Drug excretion in C57BL/6 mouse assessed as drug recovery in bile at 1 uM administered through single-pass liver perfusion for 15 mins relative to total liver drug content at the end of infusion; assay type: ADME, tissue-based; settings: in vivo, 0.25 h
# [2] = Drug excretion in C57BL/6 mouse assessed as drug recovery in bile at 1 uM administered through single-pass liver perfusion for 15 mins coinfused with Pgp and Bcrp inhibitor GW918 relative to total liver drug content at the end of infusion; assay type: ADME, tissue-based; parameters: scale not given: the % may be the effect or the level left; settings: in vivo, 0.25 h
# [3] = Drug excretion in Mrp2 gene knockout C57BL/6 mouse assessed as drug recovery in bile at 1 uM administered through single-pass liver perfusion for 15 mins relative to total liver drug content at the end of infusion; assay type: ADME, tissue-based; settings: in vivo, 0.25 h
# [4] = Drug excretion in Mrp2 gene knockout C57BL/6 mouse assessed as drug recovery in bile at 1 uM administered through single-pass liver perfusion for 15 mins coinfused with Pgp and Bcrp inhibitor GW918 relative to total liver drug content at the end of infusion; assay type: ADME, tissue-based; parameters: scale not given: the % may be the effect or the level left; settings: in vivo, 0.25 h
# [5] = Drug excretion in Bcrp gene knockout C57BL/6 mouse assessed as drug recovery in bile at 1 uM administered through single-pass liver perfusion for 15 mins relative to total liver drug content at the end of infusion; assay type: ADME, tissue-based; settings: in vivo, 0.25 h
# [6] = Drug excretion in Bcrp gene knockout C57BL/6 mouse assessed as drug recovery in bile at 1 uM administered through single-pass liver perfusion for 15 mins coinfused with Pgp and Bcrp inhibitor GW918 relative to total liver drug content at the end of infusion; assay type: ADME, tissue-based; parameters: scale not given: the % may be the effect or the level left; settings: in vivo, 0.25 h
# Mus musculus [7] = assay: Hepatic uptake clearance in C57BL/6 mouse at 1 uM administered through single-pass liver perfusion for 15 mins; assay type: ADME, organism-based; settings: in vivo, 0.25 h
# Mus musculus [8] = assay: Hepatic uptake clearance in C57BL/6 mouse at 1 uM administered through single-pass liver perfusion for 15 mins coinfused with Pgp and Bcrp inhibitor GW918; assay type: ADME, organism-based; settings: in vivo, 0.25 h
# Mus musculus [9] = assay: Hepatic uptake clearance in Mrp2 gene knockout C57BL/6 mouse at 1 uM administered through single-pass liver perfusion for 15 mins; assay type: ADME, organism-based; settings: in vivo, 0.25 h
# Mus musculus [10] = assay: Hepatic uptake clearance in Mrp2 gene knockout C57BL/6 mouse at 1 uM administered through single-pass liver perfusion for 15 mins coinfused with Pgp and Bcrp inhibitor GW918; assay type: ADME, organism-based; settings: in vivo, 0.25 h
# Mus musculus [11] = assay: Hepatic uptake clearance in Bcrp gene knockout C57BL/6 mouse at 1 uM administered through single-pass liver perfusion for 15 mins; assay type: ADME, organism-based; settings: in vivo, 0.25 h
# Mus musculus [12] = assay: Hepatic uptake clearance in Bcrp gene knockout C57BL/6 mouse at 1 uM administered through single-pass liver perfusion for 15 mins coinfused with Pgp and Bcrp inhibitor GW918; assay type: ADME, organism-based; settings: in vivo, 0.25 h
# Mus musculus [13] = assay: Drug excretion in C57BL/6 mouse assessed as drug recovery in outflow perfusate and bile at 1 uM administered through single-pass liver perfusion for 15 mins; assay type: ADME, organism-based; settings: in vivo, other, 0.25 h
# Mus musculus [14] = assay: Drug excretion in Mrp2 gene knockout C57BL/6 mouse assessed as drug recovery in outflow perfusate and bile at 1 uM administered through single-pass liver perfusion for 15 mins; assay type: ADME, organism-based; settings: in vivo, 0.25 h
# Mus musculus [15] = assay: Drug excretion in Bcrp gene knockout C57BL/6 mouse assessed as drug recovery in outflow perfusate and bile at 1 uM administered through single-pass liver perfusion for 15 mins; assay type: ADME, organism-based; settings: in vivo, 0.25 h
# [16] = Drug level in C57BL/6 mouse bile at 1 uM administered through single-pass liver perfusion for 15 mins; assay type: ADME, tissue-based; settings: in vivo, 0.25 h
# [17] = Drug level in Mrp2 gene knockout C57BL/6 mouse bile at 1 uM administered through single-pass liver perfusion for 15 mins; assay type: ADME, tissue-based; settings: in vivo, 0.25 h
# [18] = Drug level in Bcrp gene knockout C57BL/6 mouse bile at 1 uM administered through single-pass liver perfusion for 15 mins; assay type: ADME, tissue-based; settings: in vivo, 0.25 h
# [19] = Drug level in C57BL/6 mouse bile at 1 uM administered through single-pass liver perfusion for 15 mins coinfused with Pgp and Bcrp inhibitor GW918; assay type: ADME, tissue-based; settings: in vivo, 0.25 h
# [20] = Drug level in Mrp2 gene knockout C57BL/6 mouse bile at 1 uM administered through single-pass liver perfusion for 15 mins coinfused with Pgp and Bcrp inhibitor GW918; assay type: ADME, tissue-based; settings: in vivo, 0.25 h
# [21] = Drug level in Bcrp gene knockout C57BL/6 mouse bile at 1 uM administered through single-pass liver perfusion for 15 mins coinfused with Pgp and Bcrp inhibitor GW918; assay type: ADME, tissue-based; settings: in vivo, 0.25 h
# Mus musculus [22] = assay: Drug excretion in C57BL/6 mouse assessed as drug recovery in outflow perfusate at 1 uM administered through single-pass liver perfusion for 15 mins relative to total liver drug content at the end of infusion; assay type: ADME, organism-based; settings: in vivo, 0.25 h
# Mus musculus [23] = assay: Drug excretion in C57BL/6 mouse assessed as drug recovery in outflow perfusate at 1 uM administered through single-pass liver perfusion for 15 mins coinfused with Pgp and Bcrp inhibitor GW918 relative to total liver drug content at the end of infusion; assay type: ADME, organism-based; parameters: scale not given: the % may be the effect or the level left; settings: in vivo, 0.25 h
# Mus musculus [24] = assay: Drug excretion in Mrp2 gene knockout C57BL/6 mouse assessed as drug recovery in outflow perfusate at 1 uM administered through single-pass liver perfusion for 15 mins relative to total liver drug content at the end of infusion; assay type: ADME, organism-based; settings: in vivo, 0.25 h
# Mus musculus [25] = assay: Drug excretion in Mrp2 gene knockout C57BL/6 mouse assessed as drug recovery in outflow perfusate at 1 uM administered through single-pass liver perfusion for 15 mins coinfused with Pgp and Bcrp inhibitor GW918 relative to total liver drug content at the end of infusion; assay type: ADME, organism-based; parameters: scale not given: the % may be the effect or the level left; settings: in vivo, 0.25 h
# Mus musculus [26] = assay: Drug excretion in Bcrp gene knockout C57BL/6 mouse assessed as drug recovery in outflow perfusate at 1 uM administered through single-pass liver perfusion for 15 mins relative to total liver drug content at the end of infusion; assay type: ADME, organism-based; settings: in vivo, 0.25 h
# Mus musculus [27] = assay: Drug excretion in Bcrp gene knockout C57BL/6 mouse assessed as drug recovery in outflow perfusate at 1 uM administered through single-pass liver perfusion for 15 mins coinfused with Pgp and Bcrp inhibitor GW918 relative to total liver drug content at the end of infusion; assay type: ADME, organism-based; parameters: scale not given: the % may be the effect or the level left; settings: in vivo, 0.25 h
sequence,measurement,setting,value
SPIRAMYCIN,Activity,[1],9.15%
same,Activity,[2],4.36%
same,Activity,[3],1.21%
same,Activity,[4],0.58%
same,Activity,[5],14.1%
same,Activity,[6],8.28%
same,CLup,Mus musculus [7],4.63 mL/min
same,CLup,Mus musculus [8],4.64 mL/min
same,CLup,Mus musculus [9],5.15 mL/min
same,CLup,Mus musculus [10],4.7 mL/min
same,CLup,Mus musculus [11],4.55 mL/min
same,CLup,Mus musculus [12],5.03 mL/min
same,Activity,Mus musculus [13],90.5 %ID
same,Activity,Mus musculus [14],82.4 %ID
same,Activity,Mus musculus [15],86.5 %ID
same,Drug uptake,[16],8.65 µg/mL
same,Drug uptake,[17],3.45 µg/mL
same,Drug uptake,[18],19.1 µg/mL
same,Drug uptake,[19],7.82 µg/mL
same,Drug uptake,[20],1.77 µg/mL
same,Drug uptake,[21],14 µg/mL
same,Activity,Mus musculus [22],32.5%
same,Activity,Mus musculus [23],34.1%
same,Activity,Mus musculus [24],29.5%
same,Activity,Mus musculus [25],24%
same,Activity,Mus musculus [26],28.1%
same,Activity,Mus musculus [27],25.2%
